Literature values as cited in patent US9662359B2, “Compositions and methods for treating depression” (Alexander Vuckovic, M.D., LLC, priority 2010, dated 2017).

Conditions: oral SAMe

S-Adenosyl methionine [SAMe]
half-life: about 100 minutes
